Test results from patent US4200631A, “Treating mammalian subject sensitive to indomethacin ulcerogenisis” (priority 1978, dated 1980).

Details: rat, in vivo, po

COc1ccc2c(c1)c(CC(=O)O)c(C)n2C(=O)c1ccc(Cl)cc1 [Indomethacin]
Therapeutical index LD50/ED50 (B): 8.9
